Measurements reported in PMC5623949, “Exploiting the 2-Amino-1,3,4-thiadiazole Scaffold To Inhibit Trypanosoma brucei Pteridine Reductase in Support of Early-Stage Drug Discovery” (ACS Omega, 2017).
Like-named read-outs stand apart in the source and are kept apart here.

Tests used:
hDHFR = target: T1, hDHFR (Homo sapiens, UniProt P00374); assay: biochemical; set-up: human DHFR enzyme inhibition
T1 construct: gene DHFR
T1 sequence (P00374 1-187): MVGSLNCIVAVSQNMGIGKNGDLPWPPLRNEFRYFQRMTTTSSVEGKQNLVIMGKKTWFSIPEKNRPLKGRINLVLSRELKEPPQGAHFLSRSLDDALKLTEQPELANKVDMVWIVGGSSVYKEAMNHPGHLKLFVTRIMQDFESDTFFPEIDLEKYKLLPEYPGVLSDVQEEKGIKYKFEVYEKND
Description: Figure 10 Summary heat map of the in vitro assays to determine possible liability issues for all synthesized compounds. Assays were performed to assess inhibition of hERG and five CYP isoforms (1A2, 2C9, 2C19, 2D6, and 3A4), growth inhibition of A549 and W1-38 cell lines, and mitochondrial toxicity at 10 μM. The hDHFR inhibition was determined at 100 μM. The data, expressed as percentage values, were organized by adopting a color code for rapid and intuitive visualization. The ideal compound should have all tiles blue, indicating a safe toxicological profile for progressing into the development pipeline. The cells are colored from blue (100% of cell growth at the tested concentration) to red (0% of cell growth at the tested concentration) for A549 and W1-38 and from blue (0% of inhibitory activity at the tested concentration) to red (100% of inhibitory activity at the tested concentration) for CYP isoforms, hERG, hDHFR, and mitochondrial toxicity.

[1] = test system: T. b. brucei Lister 427 bloodstream forms; assay: In vitro activity against T. brucei (HTS SYBR Green I growth inhibition assay); assay type: cell-based, Trypanosoma brucei brucei; conditions: Trypanosoma brucei, standard deviation within ±10% of the value; for inhibition at 50 µM: read-out: % Inhibition T. brucei at 50 μM; for EC50: read-out: EC50 T. brucei
hERG = target: T2, hERG (Homo sapiens, UniProt Q12809); set-up: hERG inhibition liability assay
T2 construct: gene KCNH2
Description: (§1) Independent of the effect of any antiparasitic potential of compounds, they were evaluated using a panel of early-toxicity assays comprising cytotoxicity (A549, human lung adenocarcinoma epithelial cell line and WI-38, human lung fibroblasts), mitochondrial toxicity (786-O, human renal carcinoma cell line), hERG inhibition,[31] cytochrome P450 inhibition (CYP1A2, CYP2C9, CYP2C19, CYP2D6, and CYP3A4),[31] and Aurora B kinase inhibition. […] For the two compounds active against TbPTR1 (4m and 4o), IC50 against hERG, cytochrome P450, and mitochondrial toxicity were determined (reported in Supporting Information). We observed that the dose of compounds 4m, 4o, 4c, and 3k was 4 μM in the potentiation assays. […] In the case of hERG, CYP2D6, CYP2A9, CYP2C19, and mitochondrial toxicity, there is a selectivity index of around 3–4 fold, thus showing an acceptable profile.  Figure 10 Summary heat map of the in vitro assays to determine possible liability issues for all synthesized compounds. Assays were performed to assess inhibition of hERG and five CYP isoforms (1A2, 2C9, 2C19, 2D6, and 3A4), growth inhibition of A549 and W1-38 cell lines, and mitochondrial toxicity at 10 μM. The hDHFR inhibition was determined at 100 μM. The data, expressed as percentage values, were organized by adopting a color code for rapid and intuitive visualization. The ideal compound should have all tiles blue, indicating a safe toxicological profile for progressing into the development pipeline. The cells are colored from blue (100% of cell growth at the tested concentration) to red (0% of cell growth at the tested concentration) for A549 and W1-38 and from blue (0% of inhibitory activity at the tested concentration) to red (100% of inhibitory activity at the tested concentration) for CYP isoforms, hERG, hDHFR, and mitochondrial toxicity.

in vitro [2] = assay: in vitro; set-up: cytotoxicity, per cent cell growth of A549 cells; conditions: human, a549 cells; read-out: % cell growth A549 at 10uM
Description: as §1

TbPTR1 = target: T3, TbPTR1 (Trypanosoma brucei brucei, UniProt O76290); assay: biochemical; conditions: 50 μM compound; for inhibition at 50 µM: read-out: % Inhibition TbPTR1 at 50 μM
T3 construct: made in house
T3 sequence (O76290 1-268): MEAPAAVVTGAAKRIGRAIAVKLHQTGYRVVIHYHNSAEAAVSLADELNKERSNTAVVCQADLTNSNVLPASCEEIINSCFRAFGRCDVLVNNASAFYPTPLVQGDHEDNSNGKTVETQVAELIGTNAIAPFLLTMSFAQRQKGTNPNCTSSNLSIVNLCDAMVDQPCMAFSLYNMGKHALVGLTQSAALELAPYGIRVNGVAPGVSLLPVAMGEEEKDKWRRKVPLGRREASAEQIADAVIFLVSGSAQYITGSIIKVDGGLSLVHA

in vitro [3] = assay: in vitro; set-up: cytotoxicity, per cent cell growth of WI-38 fibroblasts; conditions: human, wi-38 cells; read-out: % cell growth W1-38 at 10uM
Description: as §1

CYP2D6 = CYP2D6 (Homo sapiens, UniProt P10635); assay: in vitro; set-up: cytochrome P450 isoform inhibition liability assay
Description: as §1

CYP3A4 = CYP3A4 (Homo sapiens, UniProt P08684); assay: in vitro; set-up: cytochrome P450 isoform inhibition liability assay
Description: as §1

CYP2C19 = CYP2C19 (Homo sapiens, UniProt P33261); assay: in vitro; set-up: cytochrome P450 isoform inhibition liability assay
Description: as §1

CYP1A2 = target: T4, CYP1A2 (Homo sapiens, UniProt P05177); assay: in vitro; set-up: cytochrome P450 isoform inhibition liability assay
T4 sequence (P05177 1-516): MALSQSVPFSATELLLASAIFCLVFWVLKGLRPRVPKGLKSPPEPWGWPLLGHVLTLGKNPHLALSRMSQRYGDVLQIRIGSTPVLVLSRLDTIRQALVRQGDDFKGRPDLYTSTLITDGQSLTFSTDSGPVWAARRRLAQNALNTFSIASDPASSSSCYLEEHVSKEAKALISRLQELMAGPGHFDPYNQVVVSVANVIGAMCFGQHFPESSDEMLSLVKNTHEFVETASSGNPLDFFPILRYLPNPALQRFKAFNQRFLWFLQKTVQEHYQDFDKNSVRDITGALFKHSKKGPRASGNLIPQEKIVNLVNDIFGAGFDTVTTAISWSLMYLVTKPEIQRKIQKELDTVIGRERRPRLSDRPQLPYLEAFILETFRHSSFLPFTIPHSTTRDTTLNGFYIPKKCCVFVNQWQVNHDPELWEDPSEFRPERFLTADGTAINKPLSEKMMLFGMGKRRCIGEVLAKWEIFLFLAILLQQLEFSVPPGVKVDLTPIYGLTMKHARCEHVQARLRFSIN
Description: as §1

CYP2C9 = CYP2C9 (Homo sapiens, UniProt P11712); assay: in vitro; set-up: cytochrome P450 isoform inhibition liability assay
Description: as §1

786-O = assay: cells; set-up: mitochondrial toxicity in 786-O renal carcinoma cells; conditions: Homo sapiens, 786-0; mitochondrial toxicity
Description: as §1

Chain of CYP2C19 (P33261 whole entry, canonical isoform): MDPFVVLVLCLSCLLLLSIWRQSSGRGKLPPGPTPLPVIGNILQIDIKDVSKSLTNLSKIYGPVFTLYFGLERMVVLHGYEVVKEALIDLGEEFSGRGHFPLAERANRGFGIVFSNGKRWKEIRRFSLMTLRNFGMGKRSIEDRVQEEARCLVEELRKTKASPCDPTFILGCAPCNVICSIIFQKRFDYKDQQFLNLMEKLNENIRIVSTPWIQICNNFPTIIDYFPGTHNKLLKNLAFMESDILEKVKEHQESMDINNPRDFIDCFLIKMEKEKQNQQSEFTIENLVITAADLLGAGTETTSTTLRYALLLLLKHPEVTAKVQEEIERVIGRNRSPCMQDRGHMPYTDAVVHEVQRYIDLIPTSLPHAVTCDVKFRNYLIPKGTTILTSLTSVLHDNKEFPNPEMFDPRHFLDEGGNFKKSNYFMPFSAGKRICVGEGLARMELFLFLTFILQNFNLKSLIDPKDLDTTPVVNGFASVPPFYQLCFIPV
Chain of CYP2D6 (P10635 whole entry, canonical isoform): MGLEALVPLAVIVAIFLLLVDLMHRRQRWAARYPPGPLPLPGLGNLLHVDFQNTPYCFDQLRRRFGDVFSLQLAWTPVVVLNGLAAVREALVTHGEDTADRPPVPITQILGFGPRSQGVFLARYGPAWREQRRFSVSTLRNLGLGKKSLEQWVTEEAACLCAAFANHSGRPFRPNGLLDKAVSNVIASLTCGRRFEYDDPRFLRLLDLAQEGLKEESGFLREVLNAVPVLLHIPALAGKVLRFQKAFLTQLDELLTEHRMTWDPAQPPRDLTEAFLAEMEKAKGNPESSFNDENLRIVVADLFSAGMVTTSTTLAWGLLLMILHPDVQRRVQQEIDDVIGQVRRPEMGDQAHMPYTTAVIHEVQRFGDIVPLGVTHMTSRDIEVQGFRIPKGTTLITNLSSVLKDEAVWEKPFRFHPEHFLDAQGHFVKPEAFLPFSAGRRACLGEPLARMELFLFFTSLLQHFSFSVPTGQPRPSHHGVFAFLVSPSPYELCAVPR
T2 sequence (Q12809 whole entry): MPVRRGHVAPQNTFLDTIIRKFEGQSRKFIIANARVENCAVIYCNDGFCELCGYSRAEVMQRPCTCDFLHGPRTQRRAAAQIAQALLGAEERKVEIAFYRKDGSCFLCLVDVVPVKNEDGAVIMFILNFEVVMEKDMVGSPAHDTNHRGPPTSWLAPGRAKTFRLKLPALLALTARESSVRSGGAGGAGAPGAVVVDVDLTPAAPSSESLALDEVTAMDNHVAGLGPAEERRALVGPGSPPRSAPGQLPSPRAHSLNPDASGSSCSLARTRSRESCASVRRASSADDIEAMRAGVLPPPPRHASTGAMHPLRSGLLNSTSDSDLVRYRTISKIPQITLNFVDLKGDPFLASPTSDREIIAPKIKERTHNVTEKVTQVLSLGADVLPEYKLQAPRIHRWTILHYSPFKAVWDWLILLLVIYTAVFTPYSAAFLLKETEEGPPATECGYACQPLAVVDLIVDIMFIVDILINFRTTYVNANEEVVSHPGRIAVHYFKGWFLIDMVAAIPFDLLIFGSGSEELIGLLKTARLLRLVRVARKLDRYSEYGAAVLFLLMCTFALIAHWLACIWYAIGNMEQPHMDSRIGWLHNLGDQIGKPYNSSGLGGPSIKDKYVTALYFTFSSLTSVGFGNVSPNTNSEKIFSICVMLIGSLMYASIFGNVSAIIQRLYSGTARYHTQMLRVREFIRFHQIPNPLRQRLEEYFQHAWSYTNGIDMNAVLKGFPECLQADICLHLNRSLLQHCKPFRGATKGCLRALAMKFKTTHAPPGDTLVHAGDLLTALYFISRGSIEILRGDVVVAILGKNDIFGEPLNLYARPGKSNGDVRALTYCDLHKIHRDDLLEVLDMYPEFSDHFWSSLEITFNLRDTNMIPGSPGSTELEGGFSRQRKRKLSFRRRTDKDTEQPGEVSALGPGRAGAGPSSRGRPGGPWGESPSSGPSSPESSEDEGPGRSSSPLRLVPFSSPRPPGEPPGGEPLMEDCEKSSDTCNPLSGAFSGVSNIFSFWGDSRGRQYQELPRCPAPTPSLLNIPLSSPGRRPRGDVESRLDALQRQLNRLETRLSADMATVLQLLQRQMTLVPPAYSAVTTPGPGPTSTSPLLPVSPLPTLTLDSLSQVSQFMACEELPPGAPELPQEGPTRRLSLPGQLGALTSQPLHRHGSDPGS
Chain of CYP2C9 (P11712 whole entry, canonical isoform): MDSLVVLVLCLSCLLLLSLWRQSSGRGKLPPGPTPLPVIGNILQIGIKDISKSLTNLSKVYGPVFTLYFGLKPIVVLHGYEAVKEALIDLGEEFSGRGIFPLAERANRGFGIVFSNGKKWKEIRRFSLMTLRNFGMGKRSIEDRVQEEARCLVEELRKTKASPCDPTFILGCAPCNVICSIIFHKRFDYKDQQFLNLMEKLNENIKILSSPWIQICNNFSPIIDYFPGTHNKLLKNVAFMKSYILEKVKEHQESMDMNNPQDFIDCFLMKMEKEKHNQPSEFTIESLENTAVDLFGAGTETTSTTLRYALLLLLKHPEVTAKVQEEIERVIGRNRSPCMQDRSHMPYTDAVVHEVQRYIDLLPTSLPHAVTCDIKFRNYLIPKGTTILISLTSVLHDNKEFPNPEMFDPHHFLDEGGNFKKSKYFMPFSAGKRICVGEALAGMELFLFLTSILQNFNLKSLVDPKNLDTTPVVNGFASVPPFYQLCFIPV
Chain of CYP3A4 (P08684 whole entry, canonical isoform): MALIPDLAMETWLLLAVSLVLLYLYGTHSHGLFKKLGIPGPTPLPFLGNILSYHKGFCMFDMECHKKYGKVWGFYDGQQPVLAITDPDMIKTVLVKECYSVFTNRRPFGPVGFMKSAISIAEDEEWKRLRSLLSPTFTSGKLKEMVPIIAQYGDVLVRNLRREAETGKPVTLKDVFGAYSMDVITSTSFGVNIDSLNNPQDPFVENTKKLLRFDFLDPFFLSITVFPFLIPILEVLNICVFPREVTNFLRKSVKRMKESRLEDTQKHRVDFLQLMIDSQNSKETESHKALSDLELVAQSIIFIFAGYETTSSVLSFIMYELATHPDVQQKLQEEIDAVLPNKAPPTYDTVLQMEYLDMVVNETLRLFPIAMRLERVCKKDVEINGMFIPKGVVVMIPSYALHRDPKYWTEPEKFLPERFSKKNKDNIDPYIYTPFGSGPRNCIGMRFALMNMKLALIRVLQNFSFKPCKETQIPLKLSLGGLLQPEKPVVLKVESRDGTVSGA

Row | SMILES | inhibition at 100 µM (hDHFR) [%] | inhibition at 50 µM [1] [%] | inhibition at 10 µM (hERG) [%] | viability at 10 µM (in vitro [2]) [%] | inhibition at 50 µM (TbPTR1) [%] | viability at 10 µM (in vitro [3]) [%] | inhibition at 10 µM (CYP2D6) [%] | inhibition at 10 µM (CYP3A4) [%] | inhibition at 10 µM (CYP2C19) [%] | inhibition at 10 µM (CYP1A2) [%] | inhibition at 10 µM (CYP2C9) [%] | inhibition at 10 µM (hDHFR) [%] | EC50 [1] [µM] | inhibition at 10 µM (786-O) [%] | % Inhibition TbPTR1 at 50 μM (TbPTR1)
1 | Nc1cccc(-c2nnc(N)s2)c1 [1j] | 18 | 1 | 32.6 ± 34.3 | 134 ± 4.7 | 27 ± 0.4 | 92.5 ± 7.8 | -51 ± 8.9 | -14.9 ± 3.9 | -45.8 ± 11.8 | 5.3 ± 5.1 | -20.2 ± 7.3 |  |  |  | 
2 | Nc1nnc(-c2cccc(-c3cccc(C(F)(F)F)c3)c2)s1 [2d] |  | 94.8 |  |  | 4.6 ± 1 |  | 31.1 ± 4.3 | 33.9 ± 3.8 | 43.6 ± 2.1 | 100 ± 2.1 | 46.1 ± 5.4 | 34 | 37 |  | 
3 | COc1ccc(-c2cccc(-c3nnc(N)s3)c2)cc1OC [2f] | 28 | 9.5 | 15.1 ± 4.8 | 106 ± 4.2 | 8.6 ± 0.6 | 87.5 ± 44.4 | 19.2 ± 3.5 | 48.3 ± 2.4 |  | 92.8 ± 1.9 | 53.2 ± 1.6 |  |  | 1.6 ± 14.4 | 
4 | Nc1nnc(-c2ccccc2Cc2ccccc2)s1 [1m, 5-(2-benzylphenyl)-1,3,4-thiadiazol-2-amine] |  |  |  |  |  |  | 69.2 ± 4.5 | 47.5 ± 4.8 | 90.5 ± 0.6 | 68.1 ± 1 | 36.5 ± 5.4 | 20 |  |  | 
5 | NCc1ccc(-c2nnc(N)s2)cc1 [1b] |  | 93 | 5.7 ± 3.9 | 114 ± 1.2 | 7.7 ± 0.6 | 98.7 ± 11.4 | -44.2 ± 10.4 | 23.7 ± 2.2 | -17.9 ± 3.7 | -5.3 ± 10.2 | -7.9 ± 0.8 |  | 0.8 | 4.5 ± 2.5 | did not show inhibition
6 | Nc1nnc(-c2cccc(-c3ccc(C(F)(F)F)cc3)c2)s1 [2e] |  | 92.1 |  |  | 6.6 ± 0.6 |  | 20 ± 5.8 | 17.9 ± 5.3 | 12.3 ± 5.4 | 92.6 ± 1.1 | 25.6 ± 4 | 25 | 42 |  | 
